Source: patent US10365286B2, “Chromophoric structures for lanthanide chelates” (RADIOMETER TURKU OY, priority 2014, dated 2019)

Experiments:
[1] = Luminescence measurements of Eu(III) chelates with the ligands; format: physicochemical; details: Eu(III) complex of the ligand; 10 mM NH3-HCl buffer, pH 8.3
Method: FC=Flash chromatography. RT=room temperature. Microwave synthesizer was Initiator system (Biotage). ^1H NMR and ^13C NMR spectra were recorded on a Bruker AVANCE 500 DRX (Bruker, Karlsruhe, Germany) by using SiMe4 as internal standard and chemical shifts δ are in ppm. Mass spectra were recoded on a Voyager DE Pro (Applied Biosystems, Foster City, Calif.) mass spectrometer. HPLC runs were performed by Dionex's Ultimate 3000 system including Dionex's Ultimate 3000 Diode Array Detector. The used column was ThermoHypersil 150×4 mm 5μ Hypersil® ODS. Used eluents were 100 mM TEAA and CH3CN. Runs were performed by using an eluent gradient starting from 75% H2O, 20% 100 mM TEAA and 5% CH3CN and within 30 min to 30% H2O, 20% TEAA and 50% CH3CN. For the HPLC, sample concentration was aprox. 1 mg of chelate in 1 ml water. The sampling volume was 20-25 μl. The instrumentation, measurement and calculation principles for the molar absorptivities (ε), excitation maxima (λexc), luminescence lifetimes (τ), quantum yields (Φ), and triplet stage energies (T) see e.g. Räsänen, M., et al., 2014, J. Luminescence, 146, 211-217.
The luminescence parameters for Eu(III) complexes with ligands 11, 12, 14, 27, 28, and 35 were measured in 10 mM NH3-HCl buffer, pH 8.3. The molar absorptivities (c), excitation maxima (λexc ), luminescence lifetimes (τ), quantum yields (Φ), calculated luminescence yields (ε×Φ) and triplet stage (T) are presented in Table 1.

[2] = tested on: cTnI; test: Model cTnI immunoassay with chelate-labelled detection antibodies; details: for Abs max: antibody labelled with the chelate
Method: Labeling was performed in 10 mM botate buffer, pH 8.6-9.0 using 30-fold molar excess of chelates. Reactions were normally carried out overnight at +4° C. or at room temperature. Labeled antibodies were purified on Superfex 200 HR 10/30 or Superdex 200 HiLoad 26/60 gel filtration columns using Tris-saline-azide […], 9.0 g/L NaCl, and 0.5 g/L NaN3), pH 7.75 as an elution buffer. The fractions containing the antibody were pooled and the europium concentrations measured against europium calibrator. The purified antibody comjugate and the labeling ratio (i.e. chelates per protein) were quantified by calculating the protein yield or by measureing the absorbance at 280 nm and subtracting the absorption caused by the added chelate.
An earlier published nine dentate label {2,2′,2″,2′″-{[2-(4-isothiocyanato-phenyl)ethylimino]bis(methylene)bis{4-{[4-(α-galactopyranoxy)phenyl]ethynyl}-pyridine-bis(methylenenitrilo)}tetrakis(acetato)}europium(III) (von Loden, P., et al., 2003, Anal. Chem. 75, 3193) was used as a reference label.
Two labels 49 and 54 were tested in a model cTnl assay. The cTnl immunoassays were performed by using biotinylated capture cTnl antibodies together with the labelled cTnl detection antibodies described above and according to the main principles described in published method (von Loden, P., et al., 2003, Anal. Chem. 75, 3193). The combined assay/wash buffer contained 5 mmol HEPES, 2.1 g/L NaCl, 0.1 mmol EDTA, 0.055 g/L Tween 20 and 1 g/L Gernall II, pH 7.75. The capture biotinylated antibodies were pre-incubated in assay wells. The standards followed by the detection label antibody diluted in 20 μl and 10 μl assay buffer, respectively, were applied to the wells. After one hour incubation at 36 C, the wells were washed, dried and measured.

[3] = Photo-physical properties of cTnI antibodies labelled with chelate; format: physicochemical
Method: The Tnl labeled antibodies were prepared as described in Example 61.
The measured photo-physical properties gave the excitation wavelengths (λexc)at 354 nm, a luminescence decay times (τ) of 460 μs molar absorptivities (c) of 142 000 cm^−1M^−1 and luminescence yields (εΦ) of 10 500 cm^−1M^− for the labelled cTnls with the chelate 66 in 50 mM TRIS buffer (pH 7.75)
Dry measurements gave the luminescence yield of 16 500 cm^−1M^−1, which represents estimated luminescence yields based on the signal measurements after dry immunoassay done as described in the Example 61.

[4] = Photo-physical properties of chelates conjugated to taurine; format: physicochemical; details: 50 mM TRIS buffer (pH 7.75)
Method: The prepared isothiocyante activated chelates (65 and 79) were conjugated to taurine as described above in Example 68. The products were purified with semi-preparative reversed phase HPLC (RP-18 column). After the product fractions were evaporated the residues were dissolved in 50 mM TRIS buffer.
The measured photo-physical properties excitation wavelengths (λexc), luminescence decay times (τ), molar absorptivities (ε), estimated luminescence yields (εΦ) of the novel chelates (66 and 80) in 50 mM TRIS buffer (pH 7.75) are in the Table 3. The nine dentate label {2,2′,2″,2′″-{[2-(4-isothiocyanato-phenyl)ethylimino]bis(methylene)bis{4-{[4-(α-galactopyranoxy)phenyl]-ethynyl}bis(methylenenitrilo)}tetrakis(acetato)}-europium(III) (von Loden, P., et al., 2003, Anal. Chem. 75, 3193) was used as a reference label.

[5] = labelled cTnI antibodies, 50 mM TRIS buffer (pH 7.75)

Row | calculated luminescence yield ε × Φ [1] | excitation maximum λexc [1] [nm] | luminescence lifetime τ [1] [μs] | molar absorptivity ε [1] | quantum yield Φ [1] | triplet stage T [1] | Compound | further results
1 | 4 200 cm^−1M^−1 | 342 | 355 | 38 200 cm^−1M^−1 | 0.11 | 19 200 cm^−1 | O=C(O)CN(CC(=O)O)Cc1cc(C#Cc2ccc3c(c2)C(CC(=O)O)(CC(=O)O)c2ccccc2-3)cc(CN(CC(=O)O)CC(=O)O)n1 [Compound 14] | 
2 | 1 800 cm^−1M^−1 | 293 | 385 | 26 950 cm^−1M^−1 | 0.067 | 21 600 cm^−1 | O=C(O)CN(CC(=O)O)Cc1cc(C#Cc2ccccc2)cc(CN(CC(=O)O)CC(=O)O)n1 [Ref ligand, 2,2′,2″,2′″-[(4-phenylethynylpyridine-2,6-diyl)bis(methylenenitrilo)]tetrakis-(acetic acid), reference compound] | 
3 | 3 500 cm^−1M^−1 | 328 | 390 | 35 000 cm^−1M^−1 | 0.10 | 20 100 cm^−1 | O=C(O)CN(CC(=O)O)Cc1cc(-c2ccc3c(c2)C(CC(=O)O)(CC(=O)O)c2ccccc2-3)cc(CN(CC(=O)O)CC(=O)O)n1 [Compound 12] | 
4 | 4 800 cm^−1M^−1 | 323 | 380 | 104 000 cm^−1M^−1 | 0.046 | 20 000 cm^−1 | O=C(O)CN(CC(=O)O)Cc1cc(-c2ccc3c(c2)Cc2ccccc2-3)cc(CN(CC(=O)O)CC(=O)O)n1 [Compound 11] | 
5 |  |  |  |  |  |  | O=C([O-])CN(CC(=O)[O-])Cc1cc(-c2ccc3c(c2)C(CC(=O)[O-])(CC(=O)[O-])c2ccccc2-3)cc(CN(CCc2ccc(N=C=S)cc2)Cc2cc(-c3ccc4c(c3)C(CC(=O)[O-])(CC(=O)[O-])c3ccccc3-4)cc(CN(CC(=O)[O-])CC(=O)[O-])n2)n1.[Eu+3].[Na+].[Na+].[Na+].[Na+].[Na+] [Compound 54] | Abs max ([2]; Second test): 327 nm
6 |  |  |  |  |  |  | O=C([O-])COc1cc(NC(=S)NCCS(=O)(=O)[O-])ccc1C#Cc1cc(CN(CC(=O)[O-])Cc2cc(C#Cc3ccc4c(c3)C(CC(=O)[O-])(CC(=O)[O-])c3ccccc3-4)cc(C(=O)[O-])n2)nc(CN(CC(=O)[O-])Cc2cc(C#Cc3ccc4c(c3)C(CC(=O)[O-])(CC(=O)[O-])c3ccccc3-4)cc(C(=O)[O-])n2)c1.[Eu+3].[Na+].[Na+].[Na+].[Na+].[Na+].[Na+].[Na+] [Compound 66] | luminescence yield, dry measurements ([3]; estimated from signal measurements after dry immunoassay): 16 500 cm^−1M^−1; excitation wavelength λexc [3, 5]: 354 nm; luminescence decay time τ [3, 5]: 460 μs; luminescence yield εΦ [3, 5]: 10 500 cm^−1M^−; molar absorptivity [3, 5]: 142 000 cm^−1M^−1; estimated luminescence yield ε x Φ [4]: 8 700 cm^−1M^−1; excitation wavelength λexc [4]: 346 nm; luminescence decay time τ [4]: 540 μs; molar absorptivity ε [4]: 100 000 cm^−1M^−1
7 |  |  |  |  |  |  | O=C([O-])COc1cc(OCC(=O)[O-])c(C#Cc2cc(CN(CC(=O)[O-])Cc3cc(C#Cc4ccc5c(c4)C(CC(=O)[O-])(CC(=O)[O-])c4cc(NC(=S)NCCS(=O)(=O)[O-])ccc4-5)cc(CN(CC(=O)[O-])Cc4cc(C#Cc5c(OCC(=O)[O-])cc(OCC(=O)[O-])cc5OCC(=O)[O-])cc(C(=O)[O-])n4)n3)nc(C(=O)[O-])c2)c(OCC(=O)[O-])c1.[Eu+3].[Na+].[Na+].[Na+].[Na+].[Na+].[Na+].[Na+].[Na+].[Na+].[Na+] [Compound 80] | estimated luminescence yield ε x Φ [4]: 5 600 cm^−1M^−1; excitation wavelength λexc [4]: 354 nm; luminescence decay time τ [4]: 290 μs; molar absorptivity ε [4]: 105 000 cm^−1M^−1
8 |  |  |  |  |  |  | O=C([O-])CN(CC(=O)[O-])Cc1cc(C#Cc2ccc3c(c2)C(CC(=O)[O-])(CC(=O)[O-])c2ccccc2-3)cc(CN(CCc2ccc(N=C=S)cc2)Cc2cc(C#Cc3ccc4c(c3)C(CC(=O)[O-])(CC(=O)[O-])c3ccccc3-4)cc(CN(CC(=O)[O-])CC(=O)[O-])n2)n1.[Eu+3].[Na+].[Na+].[Na+].[Na+].[Na+] [Compound 49] | Abs max ([2]; First test): 348 nm; excitation after coupled in protein ([2]; label coupled to protein, broad excitation): around 350 nm
